Measured values as given in patent US9822069B2, “Urea derivative or pharmacologically acceptable salt thereof” (KYORIN PHARMACEUTICAL CO. LTD., priority 2013, dated 2017).

Columns and labels:
human FPRL1 = target: T1, human FPRL1 (Homo sapiens, UniProt P25090); assay: Measurement test of agonist activity on human FPRL1 (test of calcium mobilization in cell, HEK293 with human FPRL1 and Gα15 expression vectors); assay type: cell-based; details: calcium mobilization in HEK293 cells with human FPRL1 and Gα15 expression vectors
T1 construct: expressed in transfected cells; host or cells: HEK293 (JCRB9068, NIBIO), transient transfection with pCMV-script vectors using Lipofectamine 2000
T1 sequence (P25090 1-351): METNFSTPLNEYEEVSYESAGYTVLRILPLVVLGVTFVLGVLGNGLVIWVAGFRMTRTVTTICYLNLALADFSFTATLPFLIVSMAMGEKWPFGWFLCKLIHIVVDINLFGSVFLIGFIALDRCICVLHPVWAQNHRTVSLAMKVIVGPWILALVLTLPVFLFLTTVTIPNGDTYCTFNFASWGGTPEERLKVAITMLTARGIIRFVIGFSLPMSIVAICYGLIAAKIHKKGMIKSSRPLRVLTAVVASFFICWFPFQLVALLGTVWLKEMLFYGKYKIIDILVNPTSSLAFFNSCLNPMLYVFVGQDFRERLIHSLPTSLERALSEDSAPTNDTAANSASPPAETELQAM
Outline: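 HEK293 transiently co-transfected with human FPRL1 and Gα15, plated 24 h before assay, loaded with Fluo-4 NW dye plus probenecid. Compounds in eight 10-fold dilutions (DMSO stocks 10^−2 to 10^−9 M, then diluted 100-fold in assay buffer); calcium mobilization read on Flexstation for EC50.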

mouse (BALB/c, male) = assay: Effect of lipopolysaccharide induction on neutrophilic infiltration in mouse lung; assay type: in vivo; details: neutrophil infiltration in BAL fluid, LPS-exposed BALB/c mouse, oral; for inhibition in vivo at 1 mg/kg / inhibition in vivo at 3 mg/kg: 5 h, read-out: SUPPRESSION RATIO
Method: Effect of Lipopolysaccharide Induction on Neutrophilic Infiltration in Mouse Lung A compound to be tested was orally administrated to a mouse (BALB/c, male), and after 30 minutes, the mouse was placed in a plastic container. Lipopolysaccharide (0.3 mg/mL) dissolved in physiological saline was aerosolized with an ultrasonic wave nebulizer (NE-U17, OMRON Corporation), and exposed to the mouse for 10 minutes. After 5 hours, the anesthetized mouse was sacrificed by exsanguination. A cannula was inserted in the respiratory tract and bronchoalveolar lavage (BAL) with 1 mL of 0.85% NaCl liquid containing 0.4% sodium citrate was carried out. This operation was repeated 3 times, to obtain a BAL fluid. The BAL fluid was centrifuged at 4° C. and ×200 g for 5 minutes, and the pellet was suspended in a physiological saline containing 0.1% BSA. The number of white blood cells was counted using Turks solution with a microscope, and the total white blood cell count was calculated. The white blood cells were fixed on a glass slide using Cytospin 3 (Thermo BioAnalysis Japan K. K.). The cells were stained with Diff-Quik (SYSMEX INTERNATIONAL REAGENTS CO., LTD.), and the number thereof was counted with a microscope, and the neutrophil ratio was calculated. The neutrophil ratio was multiplied by the total white blood cell count to calculate the total neutrophil count. An effect of the compound to be tested represents a percentage (%) of suppression ratio relative to the neutrophil count in a control.

Structure (SMILES)	EC50 (human FPRL1) [nM]	other results
COc1ccc([C@@H]2CNC(=O)C2NC(=O)Nc2ccc(Cl)cc2)cc1 (mixture of isomers) [Example 1-53, (±)-trans-1-(4-chlorophenyl)-3-[4-(4-methoxyphenyl)-2-oxopyrrolidin-3-yl]urea]	0.18	inhibition in vivo at 1 mg/kg (mouse (BALB/c, male); dose 1 mg/kg): 78.9%
COc1ccc([C@@H]2CNC(=O)C2NC(=O)Nc2ccc(F)cc2)cc1 (mixture of isomers) [Example 1-54, (±)-trans-1-(4-fluorophenyl)-3-[4-(4-methoxyphenyl)-2-oxopyrrolidin-3-yl]urea]	0.11	inhibition in vivo at 3 mg/kg (mouse (BALB/c, male); dose 3 mg/kg): 98.6%
COc1ccc([C@@H]2CN(C)C(=O)C2NC(=O)Nc2ccc(Cl)cc2)cc1 (mixture of isomers) [Example 1-55, (±)-trans-1-(4-chlorophenyl)-3-[4-(4-methoxyphenyl)-1-methyl-2-oxopyrrolidin-3-yl]urea]	1.02	inhibition in vivo at 3 mg/kg (mouse (BALB/c, male); dose 3 mg/kg): 83.7%
COc1ccc([C@@H]2CN(C)C(=O)[C@H]2NC(=O)Nc2ccc(F)cc2)cc1 (relative stereo) [EXAMPLE 1-7, 1-(4-fluorophenyl)-3-[(3S*,4R*)-4-(4-methoxyphenyl)-1-methyl-2-oxopyrrolidin-3-yl]urea]	0.22	inhibition in vivo at 1 mg/kg (mouse (BALB/c, male); dose 1 mg/kg): 96.9%
COc1cc(F)c([C@@H]2CNC(=O)[C@H]2NC(=O)Nc2ccc(Cl)nc2)c(F)c1 (relative stereo) [Example 1-31, (−)-1-(6-chloropyridin-3-yl)-3-[(3S*,4R*)-4-(2,6-difluoro-4-methoxyphenyl)-2-oxopyrrolidin-3-yl]urea]	2.67	inhibition in vivo at 1 mg/kg (mouse (BALB/c, male); dose 1 mg/kg): 69.7%
COc1cc(F)c([C@@H]2CNC(=O)[C@H]2NC(=O)Nc2ccc(C)c(O)c2)c(F)c1 (relative stereo) [Example 1-68, (−)-1-[(3S*,4R*)-4-(2,6-difluoro-4-methoxyphenyl)-2-oxopyrrolidin-3-yl]-3-(3-hydroxy-4-methyl)phenyl)urea]	0.08	SUPPRESSION RATIO (%) (mouse (BALB/c, male); dose 3 mg/kg): 85.6%
COc1cc(F)c([C@@H]2CNC(=O)[C@H]2NC(=O)Nc2ccc(F)c(O)c2)c(F)c1 (relative stereo) [Example 1-71, (−)-1-[(3S*,4R*)-4-(2,6-difluoro-4-methoxyphenyl)-2-oxopyrrolidin-3-yl]-3-(4-fluoro-3-hydroxyphenyl)urea]	0.09	SUPPRESSION RATIO (%) (mouse (BALB/c, male); dose 3 mg/kg): 79.7%
COc1cc(F)c([C@@H]2CNC(=O)[C@H]2NC(=O)Nc2ccc(Cl)c(O)c2)c(F)c1 (relative stereo) [Example 1-72, (−)-1-(4-chloro-3-hydroxyphenyl)-3-[(3S*,4R*)-4-(2,6-difluoro-4-methoxyphenyl)-2-oxopyrrolidin-3-yl]urea]	0.05	SUPPRESSION RATIO (%) (mouse (BALB/c, male); dose 3 mg/kg): 93.3%
N#Cc1ccc(NC(=O)N[C@@H]2C(=O)NC[C@H]2c2cc3c(cc2F)OCC3)cc1 (relative stereo) [Example 1-84, (−)-1-(4-cyanophenyl)-3-[(3S*,4R*)-4-(6-fluoro-2,3-dihydrobenzofuran-5-yl)-2-oxopyrrolidin-3-yl]urea]	1.92	SUPPRESSION RATIO (%) (mouse (BALB/c, male); dose 1 mg/kg): 99.2%
COc1cc(F)c([C@@H]2CNC(=O)[C@H]2NC(=O)Nc2ccccc2)c(F)c1 (relative stereo) [Example 7-2, (−)-1-[(3S*,4R*)-4-(2,6-difluoro-4-methoxyphenyl)-2-oxopyrrolidin-3-yl]-3-phenylurea]	0.45	SUPPRESSION RATIO (%) (mouse (BALB/c, male); dose 1 mg/kg): 87.7%
COc1cc(F)c([C@@H]2CNC(=O)[C@H]2NC(=O)Nc2ccc(C)cc2)c(F)c1 (relative stereo) [Example 9-1, (−)-1-[(3S*,4R*)-4-(2,6-Difluoro-4-methoxyphenyl)-2-oxopyrrolidin-3-yl]-3-(p-tolyl)urea]	0.86	SUPPRESSION RATIO (%) (mouse (BALB/c, male); dose 3 mg/kg): 57.0%
CCN1C[C@@H](c2ccc(OC)cc2)[C@H](NC(=O)Nc2ccc(F)cc2)C1=O (relative stereo) [Example 12-1, (−)-1-[(3S*,4R*)-1-Ethyl-4-(4-methoxyphenyl)-2-oxopyrrolidin-3-yl]-3-(4-fluorophenyl) urea]	0.13	inhibition in vivo at 3 mg/kg (mouse (BALB/c, male); dose 3 mg/kg): 97.4%
COc1ccc([C@@H]2CN(CCO)C(=O)[C@H]2NC(=O)Nc2ccc(Cl)cc2)cc1 (single isomer, unassigned) [Example 15-1B, (+)-trans-1-(4-Chlorophenyl)-3-[1-(2-hydroxyethyl)-4-(4-methoxyphenyl)-2-oxopyrrolidin-3-yl]urea]	1.99	
COc1ccc(C2CNC(=O)C2NC(=O)Nc2ccc(Cl)cc2)cc1 (single isomer, unassigned; (+)) [Example 12-12, (+)-1-(4-chlorophenyl)-3-[4-(4-methoxyphenyl)-2-oxopyrrolidin-3-yl]urea]	0.9	
COc1ccc(C2CNC(=O)C2NC(=O)Nc2ccc(Cl)cc2)cc1 (single isomer, unassigned; (-)) [Example 12-11, (−)-1-(4-chlorophenyl)-3-[4-(4-methoxyphenyl)-2-oxopyrrolidin-3-yl]urea]	4.57	
COc1ccc([C@@H]2CN(C(C)C(=O)O)C(=O)[C@H]2NC(=O)Nc2ccc(F)cc2)cc1 (single isomer, unassigned; isomer a) [Example 18-1, (−)-2-{(3S*,4R*)-3-[3-(4-Fluorophenyl)ureido]-4-(4-methoxyphenyl)-2-oxopyrrolidin-1-yl}propionic acid (isomer A)]	2.36	
CNC(=O)C(C)N1C[C@@H](c2ccc(OC)cc2)[C@H](NC(=O)Nc2ccc(F)cc2)C1=O (single isomer, unassigned; isomer a) [Example 19-1, (−)-2-{(3S*,4R*)-3-[3-(4-Fluorophenyl)ureido]-4-(4-methoxyphenyl)-2-oxopyrrolidin-1-yl}-N-methylpropionamide (isomer A)]	0.21	
COc1ccc([C@@H]2CN(C(C)C(=O)O)C(=O)[C@H]2NC(=O)Nc2ccc(F)cc2)cc1 (single isomer, unassigned; isomer b) [Example 20-1, (−)-2-{(3S*,4R*)-3-[3-(4-Fluorophenyl)ureido]-4-(4-methoxyphenyl)-2-oxopyrrolidin-1-yl}propionic acid (isomer B)]	0.47	
CNC(=O)C(C)N1C[C@@H](c2ccc(OC)cc2)[C@H](NC(=O)Nc2ccc(F)cc2)C1=O (single isomer, unassigned; isomer b) [Example 21-1, (−)-2-{(3S*,4R*)-3-[3-(4-Fluorophenyl)ureido]-4-(4-methoxyphenyl)-2-oxopyrrolidin-1-yl}-N-methylpropionamide (isomer B)]	0.04	
CCOC(=O)CC/N=C1\NC[C@@H](c2c(F)cc(OC)cc2F)[C@@H]1NC(=O)Nc1ccc(F)cc1 [EXAMPLE 32-20, 3-((Z)-{(3S,4R)-4-(2,6-difluoro-4-methoxyphenyl)-3-[3-(4-fluorophenyl)ureido]pyrrolidin-2-ylidene}amino) propanoic acid ethyl ester]	2.86	
COc1ccc(C2CNC(=O)C2NC(=O)Nc2ccc(F)cc2)cc1 (stereo not drawn) [Example 12-13, (+)-1-(4-fluorophenyl)-3-[4-(4-methoxyphenyl)-2-oxopyrrolidin-3-yl]urea]	1.12	
COc1ccc(C2CN(CCO)C(=O)C2NC(=O)Nc2ccc(F)cc2)cc1 (stereo not drawn) [Example 12-15, (+)-1-(4-fluorophenyl)-3-[1-(2-hydroxyethyl)-4-(4-methoxyphenyl)-2-oxopyrrolidin-3-yl]urea]	0.43	
